What all share (test): growth of human tumour cells (NCI), 48 h
Assay [1] deals with A498 renal.
The subject of assay [2] is CAKI-1 renal.
In assay [3] the test system is EKVX NSCLC.
For assay [4], the system named is HOP-62 NSCLC.
Assay [5] deals with HOP-92 NSCLC.
In assay [6] the test system is SW-620 colon.
Assay [7] deals with MALME-3M melanoma.
Assay [8] has as its system NCI-H226 lung.
For assay [9], the system named is HS 578T breast.
Assay [10] deals with MDA-MB-231 breast.

Values joined by “and” are separate entries in the source; they are usually repeats but may differ in a detail not shown here. Identical values can stand only once.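 Where inhibition never reached the appropriate level, the endpoint shown equals the highest concentration tested. Otherwise, values were interpolated linearly from a five-concentration, 48-hour dose response in 96-well plates. At the GI50, growth is halved. Definition used: TGI = concentration required for complete inhibition of growth.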

For `CCOC(=O)NC(=O)c1cn(CCCOC(=O)NCCCCCCNC(=O)OCCCn2cc(C(=O)NC(=O)OCC)c(=O)[nH]c2=O)c(=O)[nH]c1=O`, the TGI was 44.1 µM in assay [1]; 35 µM in [2]; over 100 µM in [3]; over 100 µM in assay [4]; 45.6 µM in assay [5]; 93.6 µM in assay [6].
For the molecule `CCOC(=O)C(=O)Nc1c(C)cccc1C(C)C`, the TGI in assay [1], in assay [2], in [3], in assay [4], in assay [5] and in [7] was over 100 µM in each case. For the same molecule, the TGI in [8] and in assay [6] was over 100 µM each time.
As for `COc1ccc(C(=O)CC(=O)C(=O)Nc2ccc(C)c(C)c2)cc1`, the TGI in assay [1], in [2], in [3], in [4], in assay [5] and in assay [7] was over 100 µM in each case. The figures for the TGI in [8] and in assay [6] were over 100 µM and over 49.2 µM, respectively.
`COC1=C2C[C@@H](C)C[C@@H](OC)[C@@H](O)[C@H](C)/C=C(\C)[C@@H](OC(N)=O)[C@H](OC)/C=C\C=C(/C)C(=O)NC(=CC1=O)C2=O`: the TGI in [1] is 17.8 µM and 2.37 µM; in assay [9] it was 17.5 µM and 42 µM and 38.2 µM; in assay [7], 8.13 µM and 3.44 µM and 1.13 µM. The GI50 in [9] was 1.31 µM and 11.8 µM and 1.25 µM.
For `COC(=O)CS(=O)c1ccccc1` (stereo not drawn), the TGI was over 100 µM in [1]; over 100 µM in [2]; over 100 µM in [3]; 83.3 µM in assay [4]; over 100 µM in [5]; over 100 µM in [7]. In [6], this molecule yielded a TGI of over 100 µM.
Take `CCC[CH2][Sn]1([CH2]CCC)[O]CC(CN2CCOCC2)[O]1` (stereo not drawn): the GI50 in assay [1] was 5.5 µM; in assay [2], 1.36 µM; in assay [3] it was 2.18 µM; in assay [4] it was 8.8 µM; in assay [5], 3.7 µM; in [7], 1.62 µM. Besides, the values for the GI50 in assay [8] and in [6] were 20.2 µM and 1.99 µM, respectively. Besides, the TGI in assay [1] was 17.2 µM; in [2] it was 6.51 µM; in assay [3] it was 11.9 µM; in [4] it was 20.4 µM; in assay [5] it was 14 µM; in [7], 5.64 µM. The TGI in assay [8] came to 34.8 µM; in assay [6] it was 5.44 µM.
`Cc1ccc(NC2=C(Cl)C(=O)N(Cc3ccccc3)C2=O)cc1Cl`: the GI50 was 5.92 µM in [2]; 14.1 µM in assay [3]; 12.6 µM in [4]; 10.6 µM in [9]; 0.598 µM in [7]; 0.144 µM in [8]. The GI50 in [6] was 5.14 µM. Moreover, the TGI in [2] is 26 µM; in assay [3], 28.9 µM; in assay [4], 25.2 µM; in assay [9] it was 33.9 µM; in assay [7], 9.14 µM; in [8], 3.83 µM. The TGI in assay [6] is 16.9 µM.
As for `O=C(O)c1cccc2cccc(C(=O)O)c12.[Hg]`, the GI50 is 18.3 µM in assay [1]; 21.7 µM in [2]; over 100 µM in assay [3]; 20.8 µM in [4]; 4.04 µM in assay [7]; 21.1 µM in assay [8]. In addition, the GI50 in assay [6] was 12.7 µM. For the same molecule, the TGI in assay [1] was 32.3 µM; in assay [2], 53.8 µM; in assay [3] it was over 100 µM; in [4] it was 35.3 µM; in assay [7], 15 µM; in assay [8], 40.7 µM. Besides, in assay [6], the TGI is 32 µM.
With `COc1cc(Nc2nc3cc(C(F)(F)F)ccc3nc2-c2ccccc2)cc(OC)c1OC`, the TGI in [1] is over 100 µM; in assay [2], 0.0575 µM; in assay [3], over 100 µM; in assay [4] it was 94.6 µM; in assay [5] it was 20.7 µM; in [7], over 100 µM. For the same molecule, the TGI in assay [8] and in [6] was over 100 µM in each case.
For the molecule `NC(=O)CCC(NC(=O)Cc1ccccc1)C(=O)O` (stereo not drawn) (tested in a mixture with another compound), the TGI in assay [1], in assay [2], in assay [3], in [4], in assay [5] and in [7] was over 8130 µM in each case. In assay [6], this molecule registered a TGI of over 8130 µM.
In the case of `CCN(CC)CCCC(Cc1ccccc1)Nc1c2ccc(Cl)cc2nc2ccc(OC)cc12` (stereo not drawn), the GI50 in assay [1] is 1.88 µM; in assay [2], 2.1 µM; in [3] it was 2.84 µM; in [4], 3.39 µM; in assay [5], 2.1 µM; in assay [7], 2.02 µM. Further, the results for the GI50 in assay [10], in [8] and in assay [6] were 1.65 µM, 3.63 µM and 1.77 µM, respectively. In addition, the TGI in [1] was found to be 5.09 µM; in [2], 5.9 µM; in [3], 10.5 µM; in [4] it was 12.5 µM; in [5] it was 4.9 µM; in assay [7] it was 3.6 µM. The values for the TGI in assay [10], in assay [8] and in [6] were 3.7 µM, 14.5 µM and 3.81 µM, respectively.
As for `COc1ccc(NC(=O)CC(=O)N2N=C(N(CCC#N)c3cccc(C)c3)CC2c2ccccc2)cc1` (stereo not drawn), the TGI in assay [2], in assay [3], in assay [4], in assay [5], in [7] and in assay [8] was over 100 µM each time. Besides, the TGI in assay [6] was over 100 µM.
For the molecule `COc1ccc(-c2cc(-c3cc(C)ccc3O)[nH]c(=O)n2)cc1`, the TGI in [1] is over 100 µM; in [2] it was over 100 µM; in assay [3], over 100 µM; in [4], 76.4 µM; in assay [5] it was over 100 µM; in assay [7], over 100 µM. Moreover, the TGI in assay [8] and in [6] was over 100 µM each time.
Turning to `CCCC(=O)Nc1ccc2c(c1)CN1C(=O)c3ccccc3C1=N2`, the TGI in assay [2], in [4], in assay [5], in assay [9], in assay [7] and in [10] was over 100 µM in each case. For the same molecule, the TGI in [8] and in [6] was over 100 µM in each case.

For the origin of these results see PubChem BioAssay (NCI).
